pIC50: −log10 of the molar value.
What was measured:
[1] = target: T1, C. difficile full-length toxin TcdB (Clostridioides difficile, UniProt P18177); assay: cell-based
T1 construct: C. difficile full-length toxins (TcdA or TcdB); purchased EMD Millipore 616377

[2] = target: T2, C. difficile full-length toxin TcdA (Clostridioides difficile, UniProt P16154); assay: cell-based
T2 construct: C. difficile full-length toxins (TcdA or TcdB); purchased Enzo Life Sciences BML-G140-0050

[3] = system: C. difficile toxin (TcdA and TcdB, ~1:1); assay: Murine C. difficile toxin model (intrarectal toxin); assay type: in vivo, C57BL/6 mice; conditions: murine C. difficile toxin model, PO, 50 mg/kg body weight
Experimental: In the following studies, we established a murine C. difficile toxin model with modifications from a published murine model (Hirota, Iablokov et al. 2012). Details of the murine C. difficile toxin model are described in the “Experimental Protocols” (below). C. difficile toxins were isolated from a culture of the C. difficile strain VPI 10463. C. difficile toxins consisted of TcdA and TcdB (˜1:1 ratio of TcdA:TcdB). Respective TcdA and TcdB concentrations were determined by enzyme-linked immunosorbant assay (ELISA). In our mouse model, C. difficile toxins were administered intrarectally to evaluate their pathological effects.
We administered C. difficile toxin (12.5 μg/mouse) via intrarectal instillation into female C57BL/6 mice. Four (4) animals were used in each group. Four (4) hours after the toxin administration, the mice were euthanized. The colons were excised from the animals and washed with phosphate buffered saline (PBS). The colon lengths were measured. Excised colon tissues were stored at −70° C. for chemical analysis of interleukin-1β(IL-1β) and myeloperosidase (MPO) in tissues, which are the hallmarks of colon inflammation. Excised colon tissues were also stored at room temperature in 10% neutral buffered formalin for histopathological analysis.
Using the murine C. difficile toxin model (Example 61), we evaluated the efficacy of Example 6a in reducing the C. difficile toxin activity. In this study, the isolated toxin (12.5 μg) was diluted in 50 μl of PBS and mixed with a 50 μl suspension of Example 6a (10 mg/mL) in 1% carboxymethyl cellulose and 0.5% Tween 80 to achieve a fixed dose of […] of Example 6a (0.5 mg in mice weighing ˜20 g) and C. difficile toxin (12.5 μg). Three (3) animals were used in each group.
In this study, we evaluated the efficacy of Example 6a via different routes of administration (i.e., oral (PO) and intraperitoneal (IP) administrations) in the same murine C. difficile toxin model (Example 61). In both PO and IP dosages, Example 6a was prepared as 5 mg/mL solutions in 20% PEG-400, 0.4% carboxymethyl cellulose and 0.2% Tween 80. Example 6a was administered at a final dose of 50 mg/kg body weight. Three (3) mice were used in each group (i.e., vehicle (control), PO and IP).
Using the murine C. difficile toxin model (Example 63), we further tested the efficacy of four (4) additional compounds (i.e., Example 6a, Example 5ae, Example 4cl, and Example 5al) via PO administration. All of the compounds were dosed orally at 50 mg/kg body weight. In three separate studies a total of three (3) to fourteen (14) mice were used in each group.
We evaluated the efficacy of additional compounds in reducing C. difficile toxicity. Using the PO administration (Example 63), we further tested 30 compounds (Table 34). All of the compounds were dosed orally at 50 mg/kg body weight. Three (3) to fourteen (14) animals were used for each compound. % inhibition was determined by the following formula: […]
An overnight culture of C. difficile strain VPI 10463 (American Type Culture Collection) was grown at 37° C. in Brain-Heart Infusion (BHI) broth using the GasPak EZ Anaerobe Pouch System (Becton Dickinson). 2 mL of the culture was added to 28 mL of phosphate buffered saline (PBS) in a gamma-irradiated, 10,000 molecular weight cut-off, 30-70 ml Slide-A-Lyzer G2 dialysis cassette (Pierce). This cassette was submerged in 1 L of BHI broth in a 2 L beaker and incubated under anaerobic conditions for 5 days at 37° C. The culture was then transferred to a 50 mL conical tube and the cassette was washed with 10 mL of PBS. The combined culture and wash were centrifuged at 2,000 g for 20 minutes to pellet the bacteria and the supernatant was filtered through a 0.2 μm syringe filter. The filtrate was then applied to a 20 mL 150 K molecular weight cut-off concentration column (Pierce) and centrifuged at 2,000 g for 15 minutes. Concentrated supernatant was stored at 4° C. […]

[4] = target: T3, recombinant glucosyltransferase domain of C. difficile Toxin B/TcdB (Clostridioides difficile, UniProt P18177); assay: biochemical
T3 construct: 6-His (C); purchased R&D Systems 6246-GT

T1 sequence (P18177 2-2366 limits assumed): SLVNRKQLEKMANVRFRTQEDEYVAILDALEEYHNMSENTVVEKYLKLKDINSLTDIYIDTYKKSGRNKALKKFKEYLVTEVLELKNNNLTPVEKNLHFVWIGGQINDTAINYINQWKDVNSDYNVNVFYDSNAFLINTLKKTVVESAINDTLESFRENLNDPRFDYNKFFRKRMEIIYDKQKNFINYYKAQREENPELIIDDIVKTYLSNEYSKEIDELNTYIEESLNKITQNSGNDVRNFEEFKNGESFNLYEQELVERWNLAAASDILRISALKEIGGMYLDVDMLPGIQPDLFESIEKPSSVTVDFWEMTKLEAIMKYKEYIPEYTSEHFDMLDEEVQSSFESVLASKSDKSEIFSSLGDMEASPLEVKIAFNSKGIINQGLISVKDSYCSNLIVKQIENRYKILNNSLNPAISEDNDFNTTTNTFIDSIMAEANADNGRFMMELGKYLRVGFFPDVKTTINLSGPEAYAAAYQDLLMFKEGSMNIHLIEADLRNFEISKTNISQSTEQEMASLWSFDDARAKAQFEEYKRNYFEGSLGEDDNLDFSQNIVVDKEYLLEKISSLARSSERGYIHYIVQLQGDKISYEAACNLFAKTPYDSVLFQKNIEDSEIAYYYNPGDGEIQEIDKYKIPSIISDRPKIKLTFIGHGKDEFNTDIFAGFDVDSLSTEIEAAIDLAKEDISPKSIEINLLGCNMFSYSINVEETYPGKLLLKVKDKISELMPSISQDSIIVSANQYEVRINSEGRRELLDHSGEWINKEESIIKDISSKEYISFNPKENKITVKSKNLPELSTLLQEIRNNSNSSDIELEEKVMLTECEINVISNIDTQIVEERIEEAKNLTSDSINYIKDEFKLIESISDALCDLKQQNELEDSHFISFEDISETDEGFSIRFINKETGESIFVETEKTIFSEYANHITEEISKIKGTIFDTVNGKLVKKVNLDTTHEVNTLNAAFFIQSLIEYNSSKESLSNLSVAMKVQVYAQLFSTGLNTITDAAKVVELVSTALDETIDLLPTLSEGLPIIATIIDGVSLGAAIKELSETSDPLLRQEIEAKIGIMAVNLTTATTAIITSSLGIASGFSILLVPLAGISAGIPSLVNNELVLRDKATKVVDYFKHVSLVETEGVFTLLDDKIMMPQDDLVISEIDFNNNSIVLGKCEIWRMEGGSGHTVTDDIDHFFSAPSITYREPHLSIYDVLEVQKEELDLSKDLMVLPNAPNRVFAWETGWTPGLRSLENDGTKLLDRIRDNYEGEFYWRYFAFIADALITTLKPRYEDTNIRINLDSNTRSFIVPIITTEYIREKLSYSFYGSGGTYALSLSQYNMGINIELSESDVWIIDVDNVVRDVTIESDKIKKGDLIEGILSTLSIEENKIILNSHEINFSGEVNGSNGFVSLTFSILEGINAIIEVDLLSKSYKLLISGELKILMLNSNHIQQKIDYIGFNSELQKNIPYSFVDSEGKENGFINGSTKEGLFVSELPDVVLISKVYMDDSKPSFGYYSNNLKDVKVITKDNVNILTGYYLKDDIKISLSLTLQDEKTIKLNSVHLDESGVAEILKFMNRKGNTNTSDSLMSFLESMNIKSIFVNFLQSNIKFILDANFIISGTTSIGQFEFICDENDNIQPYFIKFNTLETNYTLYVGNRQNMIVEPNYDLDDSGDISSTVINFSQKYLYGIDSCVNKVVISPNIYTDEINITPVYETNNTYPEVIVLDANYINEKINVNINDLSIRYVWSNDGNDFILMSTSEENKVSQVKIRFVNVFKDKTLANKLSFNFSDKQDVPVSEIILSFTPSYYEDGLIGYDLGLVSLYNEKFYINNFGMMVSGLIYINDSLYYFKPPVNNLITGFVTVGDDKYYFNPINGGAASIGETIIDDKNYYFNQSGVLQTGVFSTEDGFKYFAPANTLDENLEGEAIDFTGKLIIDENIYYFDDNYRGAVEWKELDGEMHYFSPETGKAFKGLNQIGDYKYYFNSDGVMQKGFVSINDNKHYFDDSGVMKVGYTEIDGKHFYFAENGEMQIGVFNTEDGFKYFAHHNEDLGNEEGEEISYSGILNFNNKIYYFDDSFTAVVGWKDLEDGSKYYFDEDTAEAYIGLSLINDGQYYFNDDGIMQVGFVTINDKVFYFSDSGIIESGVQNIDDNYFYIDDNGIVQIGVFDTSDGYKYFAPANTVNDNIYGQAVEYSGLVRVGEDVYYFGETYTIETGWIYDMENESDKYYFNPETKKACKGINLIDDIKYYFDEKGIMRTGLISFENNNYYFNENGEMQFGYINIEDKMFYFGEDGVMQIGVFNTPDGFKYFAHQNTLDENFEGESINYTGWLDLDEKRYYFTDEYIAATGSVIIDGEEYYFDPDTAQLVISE
T2 sequence (P16154 whole entry, looked up): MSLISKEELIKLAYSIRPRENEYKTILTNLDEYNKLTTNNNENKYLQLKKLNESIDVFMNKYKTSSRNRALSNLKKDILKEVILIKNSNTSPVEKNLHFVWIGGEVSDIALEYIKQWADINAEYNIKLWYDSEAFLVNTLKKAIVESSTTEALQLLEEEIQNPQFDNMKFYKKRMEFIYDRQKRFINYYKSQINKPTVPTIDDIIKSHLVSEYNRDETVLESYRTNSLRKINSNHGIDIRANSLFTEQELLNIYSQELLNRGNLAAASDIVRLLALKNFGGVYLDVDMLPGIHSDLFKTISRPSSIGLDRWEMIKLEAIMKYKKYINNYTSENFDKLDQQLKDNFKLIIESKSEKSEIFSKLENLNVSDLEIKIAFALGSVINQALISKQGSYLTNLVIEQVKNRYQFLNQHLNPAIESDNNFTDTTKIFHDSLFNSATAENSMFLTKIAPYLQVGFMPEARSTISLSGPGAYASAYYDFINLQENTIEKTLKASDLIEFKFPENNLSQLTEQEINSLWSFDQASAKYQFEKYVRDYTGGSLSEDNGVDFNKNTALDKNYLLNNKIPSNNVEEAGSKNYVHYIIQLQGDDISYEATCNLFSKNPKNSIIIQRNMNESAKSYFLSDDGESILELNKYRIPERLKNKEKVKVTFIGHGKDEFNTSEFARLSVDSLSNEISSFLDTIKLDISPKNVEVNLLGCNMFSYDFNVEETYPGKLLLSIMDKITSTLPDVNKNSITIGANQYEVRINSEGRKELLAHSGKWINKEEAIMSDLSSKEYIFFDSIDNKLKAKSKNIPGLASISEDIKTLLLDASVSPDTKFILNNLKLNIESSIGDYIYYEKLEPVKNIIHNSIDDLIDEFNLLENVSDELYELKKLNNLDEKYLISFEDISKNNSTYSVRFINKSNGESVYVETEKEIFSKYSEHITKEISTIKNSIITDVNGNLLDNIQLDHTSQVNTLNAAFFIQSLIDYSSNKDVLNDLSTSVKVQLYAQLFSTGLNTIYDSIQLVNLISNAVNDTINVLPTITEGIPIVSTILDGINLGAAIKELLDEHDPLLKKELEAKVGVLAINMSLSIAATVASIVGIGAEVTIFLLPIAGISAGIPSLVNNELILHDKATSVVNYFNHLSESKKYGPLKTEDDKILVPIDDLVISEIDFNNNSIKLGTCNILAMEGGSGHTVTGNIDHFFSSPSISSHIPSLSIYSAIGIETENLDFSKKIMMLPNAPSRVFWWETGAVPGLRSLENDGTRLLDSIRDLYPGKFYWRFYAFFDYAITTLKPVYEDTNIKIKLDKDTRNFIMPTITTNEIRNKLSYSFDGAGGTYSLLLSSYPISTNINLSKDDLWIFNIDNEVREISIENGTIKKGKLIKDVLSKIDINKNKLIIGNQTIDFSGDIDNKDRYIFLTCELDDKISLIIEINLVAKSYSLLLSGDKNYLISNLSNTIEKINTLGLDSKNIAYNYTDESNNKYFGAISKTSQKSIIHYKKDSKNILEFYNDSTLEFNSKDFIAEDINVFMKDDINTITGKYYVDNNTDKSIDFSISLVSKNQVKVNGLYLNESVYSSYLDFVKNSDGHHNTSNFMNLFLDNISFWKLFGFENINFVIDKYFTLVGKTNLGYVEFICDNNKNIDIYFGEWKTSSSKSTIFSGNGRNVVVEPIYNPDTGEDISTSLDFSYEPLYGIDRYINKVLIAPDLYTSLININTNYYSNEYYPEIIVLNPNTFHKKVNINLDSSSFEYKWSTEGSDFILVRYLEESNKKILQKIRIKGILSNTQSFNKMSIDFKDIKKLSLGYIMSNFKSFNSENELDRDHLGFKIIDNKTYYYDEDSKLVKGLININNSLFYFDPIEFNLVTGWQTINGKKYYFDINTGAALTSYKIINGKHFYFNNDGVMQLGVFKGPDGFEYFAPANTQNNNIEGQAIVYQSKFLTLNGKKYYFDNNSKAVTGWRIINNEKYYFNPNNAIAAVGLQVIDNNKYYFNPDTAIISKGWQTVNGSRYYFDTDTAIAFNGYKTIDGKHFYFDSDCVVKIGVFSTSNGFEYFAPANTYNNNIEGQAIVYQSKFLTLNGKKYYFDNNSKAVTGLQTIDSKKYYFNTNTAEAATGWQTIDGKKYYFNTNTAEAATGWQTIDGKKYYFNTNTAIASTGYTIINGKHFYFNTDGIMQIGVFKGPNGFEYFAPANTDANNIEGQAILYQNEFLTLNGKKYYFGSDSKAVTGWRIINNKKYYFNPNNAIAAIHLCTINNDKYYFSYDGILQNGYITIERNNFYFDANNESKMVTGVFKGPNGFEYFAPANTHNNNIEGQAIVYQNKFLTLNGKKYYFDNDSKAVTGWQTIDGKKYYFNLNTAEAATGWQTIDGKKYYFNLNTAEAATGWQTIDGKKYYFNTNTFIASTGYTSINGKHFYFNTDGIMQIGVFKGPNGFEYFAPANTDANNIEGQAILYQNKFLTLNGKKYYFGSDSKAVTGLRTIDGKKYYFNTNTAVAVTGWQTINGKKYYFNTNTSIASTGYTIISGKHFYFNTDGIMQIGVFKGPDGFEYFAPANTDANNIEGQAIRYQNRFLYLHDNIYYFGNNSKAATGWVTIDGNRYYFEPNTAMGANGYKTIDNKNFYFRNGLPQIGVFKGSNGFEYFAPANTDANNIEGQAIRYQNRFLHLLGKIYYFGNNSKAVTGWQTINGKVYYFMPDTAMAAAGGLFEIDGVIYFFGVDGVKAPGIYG

| SMILES | pIC50 [1] | pIC50 [2] | IL-1β (% Inhibition) [3] | MPO (% Inhibition) [3] | pIC50 [4] |
| --- | --- | --- | --- | --- | --- |
| Cn1cc(C(=O)c2ccc(CN3C(=O)c4ccc(Cl)cc4NC(=O)[C@H]3Cc3ccccn3)cc2)c2ncccc21 [Example 31a, (R)-8-Chloro-4-(4-(1-methyl-1H-pyrrolo[3,2-b]pyridine-3-carbonyl)benzyl)-3-(pyridin-2-ylmethyl)-3,4-dihydro-1H-benzo[e][1,4]diazepine-2,5-dione] | 6.00 to 7.00 | 5.00 to 6.00 | 100% | 100% | > 7.00 |
| Cn1cc(C(=O)[C@H]2CC[C@H](CN3C(=O)c4ccc(Cl)cc4NC(=O)[C@H]3Cc3ccccn3)CC2)c2ncccc21 [Example 33b, (R)-8-Chloro-4-(((1r,4R)-4-(1-methyl-1H-pyrrolo[3,2-b]pyridine-3-carbonyl)cyclohexyl)methyl)-3-(pyridin-2-ylmethyl)-3,4-dihydro-1H-benzo[e][1,4]diazepine-2,5-dione] | 6.00 to 7.00 | 5.00 to 6.00 | 84% | 41% | > 7.00 |
| Cc1cnc(NC(=O)c2ccc(CN3C(=O)c4ccc(Cl)cc4NC(=O)[C@H]3Cc3ccccn3)cc2Cl)cn1 [Example 5aa, (R)-2-Chloro-4-((8-chloro-2,5-dioxo-3-(pyridin-2-ylmethyl)-2,3-dihydro-1H-benzo[e][1,4]diazepin-4(5H)-yl)methyl)-N-(5-methylpyrazin-2-yl)benzamide] | 6.00 to 7.00 | 5.00 to 6.00 | 63% | 50% | > 7.00 |
| COc1cnc(NC(=O)c2ccc(CN3C(=O)c4ccc(Cl)cc4NC(=O)[C@H]3Cc3ccccn3)cc2OC)cn1 [Example 5ak, (R)-4-((8-Chloro-2,5-dioxo-3-(pyridin-2-ylmethyl)-2,3-dihydro-1H-benzo[e][1,4]diazepin-4(5H)-yl)methyl)-2-methoxy-N-(5-methoxypyrazin-2-yl)benzamide] | 6.00 to 7.00 | 5.00 to 6.00 | 71% | 73% | > 7.00 |
| O=C1Nc2cc(Cl)ccc2C(=O)N(Cc2ccc(N3Cc4cccnc4C3=O)cc2)[C@@H]1Cc1ccccn1 [Example 49c, (R)-8-Chloro-4-(4-(7-oxo-5H-pyrrolo[3,4-b]pyridin-6(7H)-yl)benzyl)-3-(pyridin-2-ylmethyl)-3,4-dihydro-1H-benzo[e][1,4]diazepine-2,5-dione] | < 5.00 | < 5.00 | 30% | 0% | > 7.00 |
| COc1cc(CN2C(=O)c3ccc(Cl)cc3NC(=O)[C@H]2Cc2ccccn2)ccc1C(=O)Nc1ncc(C)cn1 [Example 5am, (R)-4-((8-Chloro-2,5-dioxo-3-(pyridin-2-ylmethyl)-2,3-dihydro-1H-benzo[e][1,4]diazepin-4(5H)-yl)methyl)-2-methoxy-N-(5-methylpyrimidin-2-yl)benzamide] | 6.00 to 7.00 | 5.00 to 6.00 | 54% | 31% | > 7.00 |
| COc1cnc(NC(=O)c2ccc(CN3C(=O)c4ccc(Cl)cc4NC(=O)[C@H]3Cc3ccccn3)cc2C)nc1 [Example 5ai, (R)-4-((8-Chloro-2,5-dioxo-3-(pyridin-2-ylmethyl)-2,3-dihydro-1H-benzo[e][1,4]diazepin-4(5H)-yl)methyl)-N-(5-methoxypyrimidin-2-yl)-2-methylbenzamide] | > 7.00 | 6.00 to 7.00 | 96% | 79% | > 7.00 |
| O=C(c1ccccn1)c1ccc(CN2C(=O)c3ccc(Cl)cc3NC(=O)[C@H]2Cc2ccccn2)cc1Cl [Example 11g, (R)-8-Chloro-4-(3-chloro-4-picolinoylbenzyl)-3-(pyridin-2-ylmethyl)-3,4-dihydro-1H-benzo[e][1,4]diazepine-2,5-dione] | 5.00 to 6.00 | < 5.00 | 15% | 28% | > 7.00 |
| Cc1cnc2c(c1)CCN2C(=O)c1ccc(CN2C(=O)c3ccc(Cl)cc3NC(=O)[C@H]2Cc2ccccn2)cc1Cl [Example 4ad, (R)-8-Chloro-4-(3-chloro-4-(5-methyl-2,3-dihydro-1H-pyrrolo[2,3-b]pyridine-1-carbonyl)benzyl)-3-(pyridin-2-ylmethyl)-3,4-dihydro-1H-benzo[e][1,4]diazepine-2,5-dione] | > 7.00 | 6.00 to 7.00 | 80% | 100% | > 7.00 |
| COc1cnc(NC(=O)c2ccc(CN3C(=O)c4ccc(Cl)cc4NC(=O)[C@H]3Cc3ccccn3)cc2Cl)cn1 [Example 4ci, (R)-2-Chloro-4-((8-chloro-2,5-dioxo-3-(pyridin-2-ylmethyl)-2,3-dihydro-1H-benzo[e][1,4]diazepin-4(5H)-yl)methyl)-N-(5-methoxypyrazin-2-yl)benzamide] | 6.00 to 7.00 | 5.00 to 6.00 | 86% | 19% | > 7.00 |
| COc1cc(CN2C(=O)c3ccc(Cl)cc3NC(=O)[C@H]2Cc2ccccn2)ccc1C(=O)Nc1ccc(C(F)(F)F)cn1 [Example 4au, (R)-4-((8-Chloro-2,5-dioxo-3-(pyridin-2-ylmethyl)-2,3-dihydro-1H-benzo[e][1,4]diazepin-4(5H)-yl)methyl)-2-methoxy-N-(5-(trifluoromethyl)pyridin-2-yl)benzamide] | 6.00 to 7.00 | < 5.00 | 40% | 0% | > 7.00 |
| O=C1Nc2cc(Cl)ccc2C(=O)N(Cc2ccc(N3CCc4cccnc4C3=O)cc2)[C@@H]1Cc1ccccn1 [Example 49b, (R)-8-Chloro-4-(4-(8-oxo-5,6-dihydro-1,7-naphthyridin-7(8H)-yl)benzyl)-3-(pyridin-2-ylmethyl)-3,4-dihydro-1H-benzo[e][1,4]diazepine-2,5-dione] | 5.00 to 6.00 | < 5.00 | 13% | 0% | > 7.00 |
| Cc1cnc(NC(=O)c2ccc(CN3C(=O)c4ccc(Cl)cc4NC(=O)[C@H]3Cc3ccccn3)cc2C)cn1 [Example 5ah, (R)-4-((8-Chloro-2,5-dioxo-3-(pyridin-2-ylmethyl)-2,3-dihydro-1H-benzo[e][1,4]diazepin-4(5H)-yl)methyl)-2-methyl-N-(5-methylpyrazin-2-yl)benzamide] | 6.00 to 7.00 | 5.00 to 6.00 | 91% | 65% | > 7.00 |
| COc1ccc(NC(=O)c2ccc(CN3C(=O)c4ccc(Cl)cc4NC(=O)[C@H]3Cc3ccccn3)cc2Cl)nc1 [Example 4by, (R)-2-Chloro-4-((8-chloro-2,5-dioxo-3-(pyridin-2-ylmethyl)-2,3-dihydro-1H-benzo[e][1,4]diazepin-4(5H)-yl)methyl)-N-(5-methoxypyridin-2-yl)benzamide] | > 7.00 | 6.00 to 7.00 | 46% | 1% | > 7.00 |

From patent US10669242B2 (priority 2016, dated 2020)
